Test system: 616215-338-R-J1-PDC tumor spheroids, viability
Experiment: Anticancer human tumor 616215-338-R-J1-PDC patient-derived colon adenocarcinoma cell line growth inhibition [GQUAD]
Settings: spheroids with HUVEC and MSC; for IC50: curve of first compound; for viability, T/C: stronger effect = lower value
Source text: DNA G-quadruplex Stabilizer Agents in Combinations in Complex Spheroids
A high-throughput screen of multi-cell type tumor spheroids was designed to identify active combinations of DNA G-quadruplex stabilizer agents and targeted small molecules. Complex spheroids include a stromal component modeled by human endothelial cells (HUVEC) and fibroblasts modeled by human mesenchymal stem cells (MSCs). The concentration ranges selected for each drug and investigational agent were based upon clinically achievable concentrations if the clinical Cmax of the agent was known.
Compounds. The drugs and investigational agents: pidnarulex (CX-5461; NSC782164), APTO-253 (NSC789042), BRACO-19 (NSC847499), peposertib (NSC802822), ceralasertib (NSC780249), elimusertib (NSC800525), camonsertib (NSC841442), AZD-1390 (NSC803789), olaparib (NSC753686), talazoparib (NSC767125), ART-558 (NSC835418), sotorasib (NSC818433), MRTX-1133 (NSC836407), SN-38 (NSC673596), topotecan (NSC609699), etoposide (NSC141540), doxorubicin (NSC123127), gemcitabine (NSC613327), 5-fluorouracil (NSC19893), paclitaxel (NSC125973), vemurafenib (NSC761431), panobinostat (NSC761190), R-306465 (JNJ-16241199; NSC773264), adavosertib (NSC754352), TP-3654 (NSC805149), carboplatin (NSC241240), KSQ-4279 (NSC840948), and staurosporine (NSC755774) were obtained from the National Cancer Institute (NCI) Developmental Therapeutics Program Chemical Repository (34). The FDA-approved anticancer drug set is available from the NCI Developmental Therapeutics Program. […] The stock solutions were prepared in dimethyl sulfoxide (DMSO, Sigma-Aldrich, St. Louis, MO, cat. D2650) at 800-fold the tested concentration and stored at -70 degrees C prior to their use. All drugs and investigational agents were tested over a range starting from a high concentration at or near the clinical Cmax and decreasing in half-log increments. If the clinical Cmax for an agent had not been determined, the highest concentration tested was 10 microM.
2.3 Cell Culture. All cells were maintained in an incubator at 37 degrees C and 5% CO2 with 95% humidity. The PDC lines were cultured according to standard operating procedures established by the NCI PDMR. All PDCs were thawed and cultured in Matrigel-coated flasks prepared with a working solution of 1X Ham's F-12 nutrient mix, without supplementation (Invitrogen, cat. 11765054), 100 U/mL penicillin-streptomycin (Invitrogen, cat. 15140122), and 2.5% Matrigel (Corning Inc., cat. 354248) for the first three passages. The 857933-349-R-J2-PDC line was cultured in 6C/Colon 1B media, which includes advanced DMEM/F-12 (Thermo Fisher Scientific, cat. 12634028), 10 mM HEPES (Thermo Fisher Scientific, cat. 15630080), 1X GlutaMAX supplement (Thermo Fisher Scientific, cat. 35050061), 0.1 mg/mL primocin (InvivoGen, cat. ant-pm-2), 10% defined fetal bovine serum, heat inactivated (HyClone Laboratories Inc., cat. SH30070.03HI), 50% L-WRN conditioned media (ATCC, cat. CRL-3276), 1.25 mM N-Acetyl-L-cysteine (Sigma-Aldrich, cat. A9165), 10 mM nicotinamide (Sigma-Aldrich, cat. N0636), 1X B-27 supplement (Thermo Fisher Scientific, cat. 17504044), 1X N-2 supplement (Thermo Fisher Scientific, cat. 17502048), 10 microM Y-27632 dihydrochloride (Tocris Bioscience, cat. 1254), and 50 ng/mL human EGF recombinant protein (Thermo Fisher Scientific, cat. PHG0311). The 485176-168-R4-J1-PDC line was cultured in Panc media, which includes all 6C/Colon 1B media components plus 100 ng/mL human FGF-10 (Thermo Fisher Scientific, cat. 100-26), 500 nM SB-431542 (Selleckchem, cat. S1067), and gastrin (Tocris, cat. 3006).
[…]

[1] = second compound 0.0316 µM, first compound 0.0316 µM
[2] = second compound 0.0316 µM, first compound 0.1 µM
[3] = second compound 0.0316 µM, first compound 0.316 µM
[4] = second compound 0.0316 µM, first compound 1 µM
[5] = second compound 0.0316 µM, first compound 3.16 µM
[6] = second compound 0.0316 µM, first compound 10 µM
[7] = second compound 0.1 µM, first compound 0.0316 µM
[8] = second compound 0.1 µM, first compound 0.1 µM
[9] = second compound 0.1 µM, first compound 0.316 µM
[10] = second compound 0.1 µM, first compound 1 µM
[11] = second compound 0.1 µM, first compound 3.16 µM
[12] = second compound 0.1 µM, first compound 10 µM
[13] = second compound 0.316 µM, first compound 0.0316 µM
[14] = second compound 0.316 µM, first compound 0.1 µM
[15] = second compound 0.316 µM, first compound 0.316 µM
[16] = second compound 0.316 µM, first compound 1 µM
[17] = second compound 0.316 µM, first compound 3.16 µM
[18] = second compound 0.316 µM, first compound 10 µM
[19] = second compound 1 µM, first compound 0.0316 µM
[20] = second compound 1 µM, first compound 0.1 µM
[21] = second compound 1 µM, first compound 0.316 µM
[22] = second compound 1 µM, first compound 1 µM
[23] = second compound 1 µM, first compound 3.16 µM
[24] = second compound 1 µM, first compound 10 µM
[25] = second compound 3.16 µM, first compound 0.0316 µM
[26] = second compound 3.16 µM, first compound 0.1 µM
[27] = second compound 3.16 µM, first compound 0.316 µM
[28] = second compound 3.16 µM, first compound 1 µM
[29] = second compound 3.16 µM, first compound 3.16 µM
[30] = second compound 3.16 µM, first compound 10 µM
[31] = second compound 10 µM, first compound 0.0316 µM
[32] = second compound 10 µM, first compound 0.1 µM
[33] = second compound 10 µM, first compound 0.316 µM
[34] = second compound 10 µM, first compound 1 µM
[35] = second compound 10 µM, first compound 3.16 µM
[36] = second compound 10 µM, first compound 10 µM
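Also: spheroids exposed to agents for 7 days before readout.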
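For viability, T/C in this document: percent viability relative to DMSO vehicle control wells taken as 100%.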

With `O=C(c1cc(Cc2n[nH]c(=O)c3ccccc23)ccc1F)N1CCN(C(=O)C2CC2)CC1` + Cc1cnc(CNC(=O)c2c(=O)c3ccc(N4CCCN(C)CC4)nc3n3c2sc2ccccc23)cn1 the IC50 (second compound 0.0316 µM) was > 10 µM, the IC50 (second compound 0.1 µM) was > 10 µM and the IC50 (second compound 0.316 µM) was < 0.0316 µM. The IC50 (second compound 1 µM) was < 0.0316 µM, the IC50 (second compound 3.16 µM) was < 0.0316 µM and the IC50 (second compound 10 µM) was < 0.0316 µM. It also gave a viability, T/C [1] of 97.3%, a viability, T/C [2] of 103% and a viability, T/C [3] of 107%. The viability, T/C [4] was 87.9%, the viability, T/C [5] was 84.3% and the viability, T/C [6] was 68.7%. It also gave a viability, T/C [7] of 68.5%, a viability, T/C [8] of 69.3% and a viability, T/C [9] of 74.4%. The viability, T/C [10] was 64.3%, the viability, T/C [11] was 53.9% and the viability, T/C [12] was 51.5%. For the same compound, the viability, T/C [13] was 43.6%, the viability, T/C [14] was 39.4% and the viability, T/C [15] was 46.4%. The viability, T/C [16] was 52.2%, the viability, T/C [17] was 36.1% and the viability, T/C [18] was 35.1%. The viability, T/C [19] was 42.8%, the viability, T/C [20] was 28.7% and the viability, T/C [21] was 30.4%. For the same compound, the viability, T/C [22] was 54.8%, the viability, T/C [23] was 38.5% and the viability, T/C [24] was 26.7%. It also gave a viability, T/C [25] of 28.1%, a viability, T/C [26] of 26.6% and a viability, T/C [27] of 23.2%. It also gave a viability, T/C [28] of 28.7%, a viability, T/C [29] of 41.4% and a viability, T/C [30] of 30.3%. The viability, T/C [31] was 36.6%, the viability, T/C [32] was 28.7% and the viability, T/C [33] was 25.2%. The viability, T/C [34] was 22.7%, the viability, T/C [35] was 44.1% and the viability, T/C [36] was 24.3%.
With `C=CC(=O)N1CCN(c2nc(=O)n(-c3c(C)ccnc3C(C)C)c3nc(-c4c(O)cccc4F)c(F)cc23)C(C)C1` (centres undefined) + Cc1[nH]c2ccc(F)cc2c1-c1nc2c3cccnc3c3ncccc3c2[nH]1 the IC50 (second compound 0.0316 µM) was > 10 µM, the IC50 (second compound 0.1 µM) was > 10 µM and the IC50 (second compound 0.316 µM) was > 10 µM. The IC50 (second compound 1 µM) was > 10 µM, the IC50 (second compound 3.16 µM) was > 10 µM and the IC50 (second compound 10 µM) was > 10 µM. It also gave a viability, T/C [1] of 102%, a viability, T/C [2] of 95% and a viability, T/C [3] of 97.3%. The viability, T/C [4] was 104%, the viability, T/C [5] was 89.7% and the viability, T/C [6] was 82.1%. For the same compound, the viability, T/C [7] was 102%, the viability, T/C [8] was 92.5% and the viability, T/C [9] was 102%. It also gave a viability, T/C [10] of 96.9%, a viability, T/C [11] of 93.9% and a viability, T/C [12] of 71.6%. It also gave a viability, T/C [13] of 87.4%, a viability, T/C [14] of 98.6% and a viability, T/C [15] of 96.8%. For the same compound, the viability, T/C [16] was 108%, the viability, T/C [17] was 88.6% and the viability, T/C [18] was 67.7%. It also gave a viability, T/C [19] of 99.7%, a viability, T/C [20] of 93.2% and a viability, T/C [21] of 90.8%. For the same compound, the viability, T/C [22] was 105%, the viability, T/C [23] was 92.5% and the viability, T/C [24] was 71.8%. The viability, T/C [25] was 100%, the viability, T/C [26] was 88.2% and the viability, T/C [27] was 107%. It also gave a viability, T/C [28] of 88.3%, a viability, T/C [29] of 87.6% and a viability, T/C [30] of 59.1%. The viability, T/C [31] was 99.7%, the viability, T/C [32] was 84.9% and the viability, T/C [33] was 88%. For the same compound, the viability, T/C [34] was 90.2%, the viability, T/C [35] was 86.2% and the viability, T/C [36] was 69.2%.

From PubChem BioAssay AID2060493 (Molecular Pharmacology Branch, DTP, NCI, 2025)
